Twelve compounds from patent US10196403B2, “Compounds and compositions and uses thereof” (Sunovion Pharmaceuticals Inc., priority 2016, dated 2019) can be followed below.

SMILES strings stand for the structures. Where two headings read alike, the source gives them in different places. Bounds are passed on as bounds.

For the assay, the system named is mice. Briefly: Neuropharmacological Assay (SmartCube). Type of assay: in vivo. The settings on record: for minimal effective dose: Mus musculus, read-out: POTENCY (minimal effective dose, MED); for AD: ADHD (SmartCube probability) / AG: analgesic (SmartCube probability) / AX: anxiolytic (SmartCube probability) / CE: cognitive enhancer (SmartCube probability) / DP: anti-depressant (SmartCube probability) / MS: mood stabilizer (SmartCube probability) / PS: anti-psychotic (SmartCube probability) / SD: sedative hypnotic (SmartCube probability) / UN: uncharacterized CNS activity (SmartCube probability): mice, i.p. 15 min before test, most efficacious dose(s) of 3 doses. The gist of the method:
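Compounds in NMP/PEG/propylene glycol given i.p. 15 min before automated video-based behavioral testing, at 3 doses; behavioral signature compared with a reference-compound database to give probability per drug class, reported at most efficacious dose. MED = dose (mpk) giving ≥50% total activity; doses typically 0.3–30 mpk.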

The mark [1] stands for this setting: MED = dose having 50% or more total activity in SmartCube.

Consider `NC[C@@H]1OCCc2cc(F)ccc21` [Example 34, (R)-(6-fluoroisochroman-1-yl)methanamine], for which the “AD: ADHD (SmartCube probability)” value is on record as “+ (LOQ≤ + <5%)”, the “AG: analgesic (SmartCube probability)” value is “++ (5%≤ ++ <25%)”, the “AX: anxiolytic (SmartCube probability)” value is listed as “++ (5%≤ ++ <25%)” and the “CE: cognitive enhancer (SmartCube probability)” value (“CE: cognitive enhancer” for short) is given as “++ (5%≤ ++ <25%)”. Moreover, the “DP: anti-depressant (SmartCube probability)” value (from here on “DP: anti-depressant”) is listed as “++ (5%≤ ++ <25%)”, the “MS: mood stabilizer (SmartCube probability)” value (shortened to “MS: mood stabilizer”) is recorded as “++ (5%≤ ++ <25%)”, the “PS: anti-psychotic (SmartCube probability)” value (“PS: anti-psychotic” below) is on record as “+++ (25%≤ +++ <50%)” and the “SD: sedative hypnotic (SmartCube probability)” value (“SD: sedative hypnotic” for short) is listed as “+ (LOQ≤ + <5%)”. Besides, the “UN: uncharacterized CNS activity (SmartCube probability)” value (“UN: uncharacterized CNS activity” for short) is recorded as “+++ (25%≤ +++ <50%)”. Besides, the minimal effective dose (in general, the smallest amount tested that counted as effective) under setting [1] was less than 3 mg/kg.
Take `Fc1cccc2c1[C@H](CNC1CCC1)OCC2` [Example 97, (R)-N-((8-fluoroisochroman-1-yl)methyl)cyclobutanamine]: the minimal effective dose lay in the range of 3 to 10 mg/kg, the “AD: ADHD (SmartCube probability)” value is “++ (5%≤ ++ <25%)”, the “AG: analgesic (SmartCube probability)” value was “+ (LOQ≤ + <5%)” and the “AX: anxiolytic (SmartCube probability)” value is listed as “++ (5%≤ ++ <25%)”. The “CE: cognitive enhancer” value was “+ (LOQ≤ + <5%)”, the “DP: anti-depressant” value is “+++ (25%≤ +++ <50%)”, the “MS: mood stabilizer” value is recorded as “+ (LOQ≤ + <5%)” and the “PS: anti-psychotic” value is on record as “++ (5%≤ ++ <25%)”. In addition, the “SD: sedative hypnotic” value is reported as “+ (LOQ≤ + <5%)” and the “UN: uncharacterized CNS activity” value is reported as “+++ (25%≤ +++ <50%)”.
For the compound `CNC[C@H]1OCCc2c1cccc2C(F)(F)F` [Example 78, (S)-N-methyl-1-(5-(trifluoromethyl)isochroman-1-yl)-methanamine], the “AD: ADHD (SmartCube probability)” value is reported as “+ (LOQ≤ + <5%)”, the “AG: analgesic (SmartCube probability)” value is “++ (5%≤ ++ <25%)”, the “AX: anxiolytic (SmartCube probability)” value is recorded as “++ (5%≤ ++ <25%)” and the “CE: cognitive enhancer” value was “+ (LOQ≤ + <5%)”. For the same compound, the “DP: anti-depressant” value is “++ (5%≤ ++ <25%)”, the “MS: mood stabilizer” value was “+ (LOQ≤ + <5%)”, the “PS: anti-psychotic” value was “+ (LOQ≤ + <5%)” and the “SD: sedative hypnotic” value is “+ (LOQ≤ + <5%)”. For the same compound, the “UN: uncharacterized CNS activity” value is “++++ (50%≤ ++++)”. Besides, the minimal effective dose under setting [1] lay within 10 to 30 mg/kg.
As for `CNC[C@H]1OCCc2ccc3c(c21)CCO3` [Example 108, (S)-N-methyl-1-(3,4,8,9-tetrahydro-1H-furo[2,3-h]isochromen-1-yl)methanamine], the “AD: ADHD (SmartCube probability)” value was “+ (LOQ≤ + <5%)”, the “AG: analgesic (SmartCube probability)” value is “+ (LOQ≤ + <5%)”, the “AX: anxiolytic (SmartCube probability)” value is “+ (LOQ≤ + <5%)” and the “CE: cognitive enhancer” value is recorded as “+ (LOQ≤ + <5%)”. Further, the “DP: anti-depressant” value is “++ (5%≤ ++ <25%)”, the “MS: mood stabilizer” value is recorded as “+ (LOQ≤ + <5%)”, the “PS: anti-psychotic” value is reported as “++ (5%≤ ++ <25%)” and the “SD: sedative hypnotic” value is recorded as “+ (LOQ≤ + <5%)”. Besides, the “UN: uncharacterized CNS activity” value was “++++ (50%≤ ++++)”. For the same compound, under setting [1], the minimal effective dose was 3 to 10 mg/kg.
With `CN(C)C[C@@H]1OCCc2cccc(F)c21` [Example 85, (R)-1-(8-fluoroisochroman-1-yl)-N,N-dimethylmethanamine], the “AD: ADHD (SmartCube probability)” value is “+ (LOQ≤ + <5%)”, the “AG: analgesic (SmartCube probability)” value is on record as “+ (LOQ≤ + <5%)”, the “AX: anxiolytic (SmartCube probability)” value is “+++ (25%≤ +++ <50%)” and the “CE: cognitive enhancer” value is listed as “++ (5%≤ ++ <25%)”. The “DP: anti-depressant” value was “++ (5%≤ ++ <25%)”, the “MS: mood stabilizer” value is reported as “+ (LOQ≤ + <5%)”, the “PS: anti-psychotic” value is reported as “++ (5%≤ ++ <25%)” and the “SD: sedative hypnotic” value is listed as “++ (5%≤ ++ <25%)”. Besides, the “UN: uncharacterized CNS activity” value is given as “+++ (25%≤ +++ <50%)”. The minimal effective dose under setting [1] was less than 3 mg/kg.
As to `CNC[C@@H]1OCCc2c(C)cccc21` [Example 39, (R)-N-methyl-1-(5-methylisochroman-1-yl)methanamine], the “AD: ADHD (SmartCube probability)” value is recorded as “+ (LOQ≤ + <5%)”, the “AG: analgesic (SmartCube probability)” value is “++ (5%≤ ++ <25%)”, the “AX: anxiolytic (SmartCube probability)” value is recorded as “++ (5%≤ ++ <25%)” and the “CE: cognitive enhancer” value was “++ (5%≤ ++ <25%)”. In addition, the “DP: anti-depressant” value is “++++ (50%≤ ++++)”, the “MS: mood stabilizer” value is “+ (LOQ≤ + <5%)”, the “PS: anti-psychotic” value is given as “++ (5%≤ ++ <25%)” and the “SD: sedative hypnotic” value is “+ (LOQ≤ + <5%)”. In addition, the “UN: uncharacterized CNS activity” value is “+++ (25%≤ +++ <50%)”. The minimal effective dose under setting [1] was less than 3 mg/kg.
As for `NC[C@@H]1OCCc2cccc(Cl)c21` [Example 71, (R)-(8-chloroisochroman-1-yl)methanamine], the “AD: ADHD (SmartCube probability)” value is recorded as “+ (LOQ≤ + <5%)”, the “AG: analgesic (SmartCube probability)” value is “++ (5%≤ ++ <25%)”, the “AX: anxiolytic (SmartCube probability)” value is listed as “++ (5%≤ ++ <25%)” and the “CE: cognitive enhancer” value is “++ (5%≤ ++ <25%)”. The “DP: anti-depressant” value is on record as “+ (LOQ≤ + <5%)”, the “MS: mood stabilizer” value is given as “+ (LOQ≤ + <5%)”, the “PS: anti-psychotic” value is given as “++ (5%≤ ++ <25%)” and the “SD: sedative hypnotic” value is on record as “+ (LOQ≤ + <5%)”. In addition, the “UN: uncharacterized CNS activity” value is on record as “++++ (50%≤ ++++)”. In addition, the minimal effective dose under setting [1] was less than 3 mg/kg.
Regarding `CNC[C@@H]1OC[C@@H](O)c2ccc3c(c21)OCO3` (single isomer, unassigned) [Example 111], the “AD: ADHD (SmartCube probability)” value is on record as “+ (LOQ≤ + <5%)”, the “AG: analgesic (SmartCube probability)” value is given as “+ (LOQ≤ + <5%)”, the “AX: anxiolytic (SmartCube probability)” value is given as “++ (5%≤ ++ <25%)” and the “CE: cognitive enhancer” value is given as “+ (LOQ≤ + <5%)”. Moreover, the “DP: anti-depressant” value is reported as “++++ (50%≤ ++++)”, the “MS: mood stabilizer” value is “+ (LOQ≤ + <5%)”, the “PS: anti-psychotic” value was “++ (5%≤ ++ <25%)” and the “SD: sedative hypnotic” value is given as “+ (LOQ≤ + <5%)”. In addition, the “UN: uncharacterized CNS activity” value was “+ (LOQ≤ + <5%)”. Under setting [1], the minimal effective dose was in the range of 10 to 30 mg/kg.
Consider `CC(N)C1OCCc2ccc3c(c21)OCO3` (stereo not drawn) [Example 55], for which the “AD: ADHD (SmartCube probability)” value was “+ (LOQ≤ + <5%)”, the “AG: analgesic (SmartCube probability)” value was “++ (5%≤ ++ <25%)”, the “AX: anxiolytic (SmartCube probability)” value is “++ (5%≤ ++ <25%)” and the “CE: cognitive enhancer” value is given as “+ (LOQ≤ + <5%)”. Besides, the “DP: anti-depressant” value is recorded as “++ (5%≤ ++ <25%)”, the “MS: mood stabilizer” value is on record as “+ (LOQ≤ + <5%)”, the “PS: anti-psychotic” value was “+ (LOQ≤ + <5%)” and the “SD: sedative hypnotic” value is “+ (LOQ≤ + <5%)”. The “UN: uncharacterized CNS activity” value is reported as “++++ (50%≤ ++++)”. Also, the “POTENCY (minimal effective dose, MED)” value under setting [1] is recorded as “C (>10 to ≤30 mpk)”.
As to `CNC[C@H]1OCCc2ccc3c(c21)OCO3` [Example 1, (S)-1-(6,9-dihydro-7H-[1,3]dioxolo[4,5-h]isochromen-9-yl)-N-methylmethanamine], the minimal effective dose is less than 3 mg/kg, the “AD: ADHD (SmartCube probability)” value is given as “+ (LOQ≤ + <5%)”, the “AG: analgesic (SmartCube probability)” value is recorded as “+ (LOQ≤ + <5%)” and the “AX: anxiolytic (SmartCube probability)” value is recorded as “++ (5%≤ ++ <25%)”. For the same compound, the “CE: cognitive enhancer” value is on record as “+ (LOQ≤ + <5%)”, the “DP: anti-depressant” value is “++++ (50%≤ ++++)”, the “MS: mood stabilizer” value was “+ (LOQ≤ + <5%)” and the “PS: anti-psychotic” value is “++ (5%≤ ++ <25%)”. The “SD: sedative hypnotic” value was “++ (5%≤ ++ <25%)” and the “UN: uncharacterized CNS activity” value is “+ (LOQ≤ + <5%)”.
For `CNC[C@H]1OCCc2c1ccc1c2OCO1` [Example 3, (S)-1-(8,9-dihydro-6H-[1,3]dioxolo[4,5-f]isochromen-6-yl)-N-methylmethanamine], the “AD: ADHD (SmartCube probability)” value was “++ (5%≤ ++ <25%)”, the “AG: analgesic (SmartCube probability)” value is recorded as “++ (5%≤ ++ <25%)”, the “AX: anxiolytic (SmartCube probability)” value is recorded as “++ (5%≤ ++ <25%)” and the “CE: cognitive enhancer” value was “+ (LOQ≤ + <5%)”. For the same compound, the “DP: anti-depressant” value was “+++ (25%≤ +++ <50%)”, the “MS: mood stabilizer” value is listed as “+ (LOQ≤ + <5%)”, the “PS: anti-psychotic” value is recorded as “+ (LOQ≤ + <5%)” and the “SD: sedative hypnotic” value is on record as “+ (LOQ≤ + <5%)”. In addition, the “UN: uncharacterized CNS activity” value is given as “+ (LOQ≤ + <5%)”. The minimal effective dose under setting [1] lay within 10 to 30 mg/kg.
As to `Cc1cccc2c1[C@@H](CN)OCC2` [Example 74, (S)-(8-methylisochroman-1-yl)methanamine], the “AD: ADHD (SmartCube probability)” value is given as “+ (LOQ≤ + <5%)”, the “AG: analgesic (SmartCube probability)” value is “+ (LOQ≤ + <5%)”, the “AX: anxiolytic (SmartCube probability)” value is “++ (5%≤ ++ <25%)” and the “CE: cognitive enhancer” value was “+ (LOQ≤ + <5%)”. For the same compound, the “DP: anti-depressant” value was “+ (LOQ≤ + <5%)”, the “MS: mood stabilizer” value is reported as “+ (LOQ≤ + <5%)”, the “PS: anti-psychotic” value is “+ (LOQ≤ + <5%)” and the “SD: sedative hypnotic” value is on record as “++ (5%≤ ++ <25%)”. Also, the “UN: uncharacterized CNS activity” value is recorded as “+++ (25%≤ +++ <50%)”. For the same compound, the minimal effective dose under setting [1] is 10 to 30 mg/kg.
